In US11883398B2, “Dipeptidylpeptidase 4 inhibition enhances lymphocyte trafficking, improving both naturally occurring tumor immunity and immunotherapy” (INSTITUT PASTEUR, priority 2015, dated 2024):

Experiments:
CXCR3-expressing T cells = assay: Model of trafficking into the peritoneal cavity; format: in vivo, mouse
Procedure: WT and Dpp4^−/− mice were intraperitoneally injected with PBS or 1 μg of mCXCL10, mCXCL9 or mCCL5 (all from Peprotech). At the indicated time points, mice were sacrificed and peritoneal cells were collected in 10 mL of PBS. For thioglycollate induced peritonitis mice were intraperitoneally injected with thioglycollate 3% weight/volume, 24 hours before collection of peritoneal cells.
Fluorochrome-conjugated anti-mouse CD3 (clone145-2C11), CD8 (clone 53-6.7), CD4 (clone RM4-5), NK1.1 (clone PK136), CD49b (clone DX5), CD25 (clone PC61), B220 (clone RA3-6B2), Ly6G (clone 1A8), Ly6C (clone AL-21), CD11 b (clone M1/70) Siglec-F (clone E50-2440), MHCII IA-IE (clone M5/114.15.2), CD45.2 (clones 56-0454-82 and 109830), Thy-1.1 (clone HIS51), Thy-1.2 (clone 53-2.1), DPP4 (clone H194-112) and CXCR3 (clone CXCR3-173) were from eBiosciences and BD Biosciences. Fluorochrome conjugated anti-F4/80 (clone CI:A3-1) was from AbDserotec. For exclusion of dead cells, Live/Dead fixable Aqua reagent (Invitrogen) was used. For all staining protocols, cell suspensions were incubated with mouse CD16/CD32 Fc Blocking antibodies (BD Biosciences) prior to antibody. For analysis of peritoneal cavity infiltrates, cells were washed and incubated with a cocktail of fluorochrome-conjugated antibodies. For analysis of tumor infiltrates, B16F10 tumors were collected at the indicated time points and digested in PBS supplemented with 2.7 mg/ml of Collagenase (Roche) and 23U/ml of Deoxyribonuclease I (Invitrogen) for 30 min, 37° C. Digestion was terminated by adding PBS supplemented with 2% FCS and 5 mM EDTA (Gibco). Tumor cell suspensions were obtained after filtration over a 70 μm cell strainer. For determination of cell numbers, the […] COUNTING BEADS reagent (Invitrogen) was used. Flow cytometry was performed using a BD LSRFORTESSA or a BD CANTO cytometer, with DIVA software. Computer analysis was done with FLOWJO (Treestar).

mCXCL10 = assay: Chemokine quantification in B16F10 tumor homogenates (ELISA/Luminex); format: in vivo, mouse
Procedure: Soluble extracts were collected after centrifugation of tumor homogenates.
For detection of mCXCL10(1-77), MAXISORP PLATES® (Nunc) were coated with 4 μg/ml of α-mCXCL10 capturing antibody (MAB466, R&D) in PBS and incubated over night at 4° C. Plates were washed twice with 300 μL of PBS. […] Tumor and plasma samples were diluted in BSA 1% and incubated for 2h, at room temperature.

## N[C@@H](CC(=O)N1CCn2c(nnc2C(F)(F)F)C1)Cc1cc(F)c(F)cc1F [sitagliptin]
CXCR3-expressing T cells; after intraperitoneal mCXCL10, control or sitagliptin-fed mice
  recruitment of polymorphonuclear cells into the peritoneal cavity: did not show differential recruitment
CXCR3-expressing T cells; after intraperitoneal mCXCL10, sitagliptin vs control
  CXCR3 expression on peripheral blood T cells: unaltered CXCR3 expression
CXCR3-expressing T cells; intraperitoneal mCXCL10, sitagliptin vs control chow
  mCXCL10-mediated infiltration of T cells into the peritoneal cavity: enhanced mCXCL10-mediated infiltration of T cells
CXCR3-expressing T cells; peritoneal cavity after mCXCL10 injection, sitagliptin vs control
  CXCR3 plasma membrane expression on migrating T cells: lower
mCXCL10; B16F10 tumors, sitagliptin-treated vs control mice
  tumor associated mCXCL10 concentration: elevated concentrations
mCXCL10; after intra-tumoral CpG-A, sitagliptin vs control
  full-length mCXCL10(1-77) among total mCXCL10 in tumor: protected the full-length form of the molecule
mCXCL10; control vs sitagliptin treated animals
  intra-tumoral expression of mCCL2 and mCCL22 after CpG-A: no significant differences
